Data published in patent publication US20230399312A1, “SUBSTITUTED PYRIMIDINES AND METHODS OF USE” (THERAVANCE BIOPHARMA R&D IP, LLC, priority 2020, published 2023).

Key:
[1] = test system: TGF-β-stimulated SMAD3 phosphorylation in BEAS-2B cells; experiment: Cellular ALK5 potency assay, inhibition of TGF-β stimulated pSMAD3 formation in BEAS-2B cells; type: cell-based; settings: Homo sapiens, pSMAD3, TGF-β 10 ng/mL, read-out: BEAS2B pIC50 (converted)
Procedure, shortened: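 Human lung epithelial BEAS-2B cells were preincubated 1 h at 37 °C with compound in HBSS/HEPES/1% BSA, then stimulated 30 min with 10 ng/mL TGF-β. pSMAD3 in lysates was quantified by AlphaLISA relative to untreated stimulated cells; reported as pIC50.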

[2] = biological target: T1, recombinant human ALK5 (TGF-βR1) protein (Homo sapiens, UniProt P36897); experiment: Biochemical ALK5 (TGF-βR1) assay to measure pKi (LANCE Ultra ULight kinase assay); settings: apparent pKi, converted from pIC50 by Cheng-Prusoff
T1 construct: purchased Life Technologies PR9075A
T1 sequence (P36897 34-503): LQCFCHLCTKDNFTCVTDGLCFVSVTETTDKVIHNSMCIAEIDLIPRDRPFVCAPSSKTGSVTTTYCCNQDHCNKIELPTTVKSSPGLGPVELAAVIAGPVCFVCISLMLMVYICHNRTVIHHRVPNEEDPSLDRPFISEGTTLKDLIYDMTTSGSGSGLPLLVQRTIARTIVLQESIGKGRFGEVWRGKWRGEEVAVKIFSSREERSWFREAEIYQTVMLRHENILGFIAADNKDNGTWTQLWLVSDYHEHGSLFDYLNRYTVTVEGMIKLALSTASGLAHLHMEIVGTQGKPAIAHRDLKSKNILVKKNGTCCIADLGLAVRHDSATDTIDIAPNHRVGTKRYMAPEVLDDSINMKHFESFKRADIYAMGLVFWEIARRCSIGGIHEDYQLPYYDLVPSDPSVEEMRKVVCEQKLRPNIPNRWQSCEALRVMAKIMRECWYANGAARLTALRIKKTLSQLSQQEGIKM
Procedure, shortened: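 Europium TR-FRET kinase assay: the enzyme is exposed to compound for 60 min at room temperature, and reaction with ATP runs 60 min at 37 °C. Percent inhibition relative to DMSO and SD-208 controls gives pIC50, which is converted to pKi.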

Row | SMILES | Ki [2] [nM] | IC50 [1] [nM]
1 | Cc1ccc(O)cc1-c1nccc(Nc2ccnc(Nc3ccc(N4CCOCC4)cc3)n2)n1 [Compound 166, 4-methyl-3-[4-[[2-(4-morpholinoanilino)pyrimidin-4-yl]amino]pyrimidin-2-yl]phenol] | 3.98 to 31.6 | 25.1 to 158
2 | CC[C@H](C)OC(=O)C1CN(Cc2ccc(Nc3nccc(Nc4ccnc(-c5cccc(C)n5)n4)n3)cc2)CCN1 (mixture of isomers) [Compound 382, [rac-(1S)-1-methylpropyl] 4-[[4-[[4-[[2-(6-methyl-2-pyridyl)pyrimidin-4-yl]amino]pyrimidin-2-yl]amino]phenyl]methyl] piperazine-2-carboxylate] | 0.0398 to 0.316 | 25.1 to 158
3 | Cc1cccc(-c2nccc(Nc3ccnc(Nc4ccc(-c5cnn(CCN(C)C)c5)cc4)n3)n2)n1 [Compound 356, N2-[4-[1-[2-(dimethylamino)ethyl]pyrazol-4-yl]phenyl]-N4-[2-(6-methyl-2-pyridyl)pyrimidin-4-yl]pyrimidine-2,4-diamine] | 0.0398 to 0.316 | 25.1 to 158
4 | Cc1cccc(-c2nccc(Nc3ccnc(Nc4cc(C(=O)OC5CCNCC5)cs4)n3)n2)n1 [Compound 85, 4-piperidyl 5-[[4-[[2-(6-methyl-2-pyridyl)pyrimidin-4-yl]amino]pyrimidin-2-yl]amino]thiophene-3-carboxylate] | 0.0398 to 0.316 | 25.1 to 158
5 | Cc1cccc(-c2nccc(Nc3ccnc(Nc4ccc(N5CCCC(C(=O)OC6CCN(C)C6)C5)cc4)n3)n2)n1 (stereo not shown) [Compound 55, (1-methylpyrrolidin-3-yl) 1-[4-[[4-[[2-(6-methyl-2-pyridyl)pyrimidin-4-yl]amino]pyrimidin-2-yl]amino]phenyl]piperidine-3-carboxylate] | 0.0398 to 0.316 | 25.1 to 158
6 | Cc1cccc(-c2nccc(Nc3ccnc(Nc4csc(C(=O)NCC5(CO)CNC5)c4)n3)n2)n1 [Compound 378, N-[[3-(hydroxymethyl)azetidin-3-yl]methyl]-4-[[4-[[2-(6-methyl-2-pyridyl)pyrimidin-4-yl]amino]pyrimidin-2-yl]amino]thiophene-2-carboxamide] | ≤ 0.0316 | 25.1 to 158
7 | Cc1cccc(-c2nccc(Nc3ccnc(Nc4ccc(C)c(CN5C6CCC5CNC6)c4)n3)n2)n1 [Compound 458, N2-[3-(3,8-diazabicyclo[3.2.1]octan-8-ylmethyl)-4-methyl-phenyl]-N4-[2-(6-methyl-2-pyridyl)pyrimidin-4-yl]pyrimidine-2,4-diamine] | 0.0398 to 0.316 | 25.1 to 158
8 | Cc1cccc(-c2nccc(Nc3ccnc(Nc4csc(C(=O)N[C@@H]5CCNC5)c4)n3)n2)n1 [Compound 336, 4-[[4-[[2-(6-methyl-2-pyridyl)pyrimidin-4-yl]amino]pyrimidin-2-yl]amino]-N-[(3R)-pyrrolidin-3-yl]thiophene-2-carboxamide] | ≤ 0.0316 | 25.1 to 158
9 | Cc1cccc(-c2nccc(Nc3ccnc(Nc4ccc(CN5CC(C)(CO)C5)cc4)n3)n2)n1 [Compound 99, [3-methyl-1-[[4-[[4-[[2-(6-methyl-2-pyridyl)pyrimidin-4-yl]amino]pyrimidin-2-yl]amino]phenyl]methyl]azetidin-3-yl]methanol] | ≤ 0.0316 | 25.1 to 158
10 | Cc1cccc(-c2nccc(Nc3ccnc(Nc4nc(C(=O)N5CCNCC5)cs4)n3)n2)n1 [Compound 510, [2-[[4-[[2-(6-methyl-2-pyridyl)pyrimidin-4-yl]amino]pyrimidin-2-yl]amino]thiazol-4-yl]-piperazin-1-yl-methanone] | 0.0398 to 0.316 | 25.1 to 158
11 | CNC1CCN(S(=O)(=O)c2ccc(Nc3nccc(Nc4ccnc(-c5cccc(C)n5)n4)n3)cc2)CC1 [Compound 352, N2-[4-[[4-(methylamino)-1-piperidyl]sulfonyl]phenyl]-N4-[2-(6-methyl-2-pyridyl)pyrimidin-4-yl]pyrimidine-2,4-diamine] | 0.0398 to 0.316 | 25.1 to 158
12 | Cc1cccc(-c2nccc(Nc3ccnc(Nc4ccc(CN5CC(C(=O)O[C@H]6CCNC6)C5)cc4)n3)n2)n1 [Compound 174, [(3S)-pyrrolidin-3-yl] 1-[[4-[[4-[[2-(6-methyl-2-pyridyl)pyrimidin-4-yl]amino]pyrimidin-2-yl]amino]phenyl]methyl] azetidine-3-carboxylate] | 0.0398 to 0.316 | 25.1 to 158
13 | Cc1cccc(-c2nccc(Nc3ccnc(Nc4ccc(N5CCNCC5)c(Cl)c4)n3)n2)n1 [Compound 445, N2-(3-chloro-4-piperazin-1-yl-phenyl)-N4-[2-(6-methyl-2-pyridyl)pyrimidin-4-yl]pyrimidine-2,4-diamine] | 0.0398 to 0.316 | 25.1 to 158
14 | Cc1cccc(-c2nccc(Nc3ccnc(Nc4ccc(S(=O)(=O)N5CCN(C(C)C)CC5)cc4)n3)n2)n1 [Compound 213, N2-[4-(4-isopropylpiperazin-1-yl)sulfonylphenyl]-N4-[2-(6-methyl-2-pyridyl)pyrimidin-4-yl]pyrimidine-2,4-diamine] | 0.0398 to 0.316 | 25.1 to 158
15 | Cc1cccc(-c2nccc(Nc3ccnc(Nc4ccc(N5CC(N)C5)cc4)n3)n2)n1 [Compound 98, N2-[4-(3-aminoazetidin-1-yl)phenyl]-N4-[2-(6-methyl-2-pyridyl)pyrimidin-4-yl]pyrimidine-2,4-diamine] | 0.0398 to 0.316 | 25.1 to 158
16 | Cc1cccc(-c2nccc(Nc3ccnc(Nc4ccc(F)c(CN5CCSCC5)c4)n3)n2)n1 [Compound 461, N2-[4-fluoro-3-(thiomorpholinomethyl)phenyl]-N4-[2-(6-methyl-2-pyridyl)pyrimidin-4-yl]pyrimidine-2,4-diamine] | 0.398 to 3.16 | 25.1 to 158
17 | Cc1cccc(-c2nccc(Nc3ccnc(Nc4ccc(CN5CC6(CCOC6)C5)cc4)n3)n2)n1 [Compound 372, N4-[2-(6-methyl-2-pyridyl)pyrimidin-4-yl]-N2-[4-(6-oxa-2-azaspiro[3.4]octan-2-ylmethyl)phenyl]pyrimidine-2,4-diamine] | 0.0398 to 0.316 | 25.1 to 158
18 | Cc1cccc(-c2nccc(Nc3ccnc(Nc4ccc(NC[C@H]5CCCN5)cc4)n3)n2)n1 [Compound 65, N4-[2-(6-methyl-2-pyridyl)pyrimidin-4-yl]-N2-[4-[[(2R)-pyrrolidin-2-yl]methylamino]phenyl] pyrimidine-2,4-diamine] | 0.0398 to 0.316 | 25.1 to 158

The next lines start with results.

Row | Ki [2] [nM] | SMILES | IC50 [1] [nM]
19 | 0.0398 to 0.316 | Cc1cccc(-c2nccc(Nc3ccnc(Nc4ccc(CN5CCC(C(=O)OCC6CNC6)C5)cc4)n3)n2)n1 (stereo not shown) [Compound 518, azetidin-3-ylmethyl 1-[[4-[[4-[[2-(6-methyl-2-pyridyl)pyrimidin-4-yl]amino]pyrimidin-2-yl]amino]phenyl]methyl] pyrrolidine-3-carboxylate] | 25.1 to 158
20 | 3.98 to 31.6 | Cc1cccc(-c2nccc(Nc3ccnc(Nc4cc(C(=O)OCCN5CCNCC5)ccn4)n3)n2)n1 [Compound 624, 2-piperazin-1-ylethyl 2-[[4-[[2-(6-methyl-2-pyridyl)pyrimidin-4-yl]amino]pyrimidin-2-yl]amino]pyridine-4-carboxylate] | 200 to 1260
21 | 0.0398 to 0.316 | CC(=O)N1CC(COC(=O)c2cc(Nc3nccc(Nc4ccnc(-c5cccc(C)n5)n4)n3)cs2)C1 [Compound 576, (1-acetylazetidin-3-yl)methyl 4-[[4-[[2-(6-methyl-2-pyridyl)pyrimidin-4-yl]amino]pyrimidin-2-yl]amino]thiophene-2-carboxylate] | 25.1 to 158
22 | 0.0398 to 0.316 | Cc1cccc(-c2nccc(Nc3ccnc(Nc4ccc(C(=O)OC[C@@H]5CCCCN5)nc4)n3)n2)n1 [Compound 597, [(2S)-2-piperidyl]methyl 5-[[4-[[2-(6-methyl-2-pyridyl)pyrimidin-4-yl]amino]pyrimidin-2-yl]amino]pyridine-2-carboxylate] | 25.1 to 158
23 | 0.0398 to 0.316 | Cc1cccc(-c2nccc(Nc3ccnc(Nc4csc(C(=O)OC[C@H]5CC[C@H](N)CC5)c4)n3)n2)n1 [Compound 590, (4-aminocyclohexyl)methyl 4-[[4-[[2-(6-methyl-2-pyridyl)pyrimidin-4-yl]amino]pyrimidin-2-yl]amino]thiophene-2-carboxylate] | 25.1 to 158
24 | 0.398 to 3.16 | Cc1cccc(-c2nc(Nc3ccnc(Nc4nc(C(=O)O)cs4)n3)c3cccn3n2)n1 [Compound 1022, 2-[[4-[[2-(6-methyl-2-pyridyl)pyrrolo[2,1-f][1,2,4]triazin-4-yl]amino]pyrimidin-2-yl]amino]thiazole-4-carboxylic acid] | 200 to 1260
25 | 3.98 to 31.6 | Cc1cccc(-c2nccc(Nc3ccnc(Nc4cc(C(=O)OCC5CNC5)ccn4)n3)n2)n1 [Compound 608, azetidin-3-ylmethyl 2-[[4-[[2-(6-methyl-2-pyridyl)pyrimidin-4-yl]amino]pyrimidin-2-yl]amino]pyridine-4-carboxylate] | 200 to 1260
26 | 0.398 to 3.16 | Cc1cccc(-c2nccc(Nc3ccnc(Nc4ccc5[nH]nnc5c4)n3)n2)n1 [Compound 512, N2-(1H-benzotriazol-5-yl)-N4-[2-(6-methyl-2-pyridyl)pyrimidin-4-yl]pyrimidine-2,4-diamine] | 25.1 to 158
